PMC10517971, “An inverse agonist of orphan receptor GPR61 acts by a G protein-competitive allosteric mechanism” (Nature Communications, 2023)

How the values were obtained:
[1] = target: hERG (Homo sapiens, UniProt Q12809); experiment: hERG Binding Assay (fluorescence polarization, Cy3B N-desmethyl dofetilide); parameters: expressed in transfected cells; membrane homogenate used
Procedure: 67 black 384 well flat -bottomed polystyrene plates. Compound/vehicle or standard (5 µL) were added
68 to wells followed by His -tagged BRD4 (10 µL; 40 nM final concentration in assay). Following a
69 15 min incubation at room temperature a propri etary Cy5 -labelled probe molecule (5 µL; 2 nM
70 final concentration in assay) was added. Following, an additional 16 h incubation at room
71 temperature fluorescence polarization measurements were made using an Envision plate reader
72 (Perkin Elmer, Waltham, MA, USA) and mP values were used for analysis .
73 Acetylcholinesterase As say
74 The assay described is based on Ellmans method, in which thiocholine produced by the action of
75 acetylcholinesterase forms a yellow color with 5,5'- dithiobis(2- nitrobenzoic acid). The intensity
76 of the product color, measured at 405 nm, is proportionate to the enzyme activity in the sample.
77 To each well of a clear 96 polystyrene plate 90 µL enzyme solution (1mU/well) or phosphate
78 buffered saline (PBS) and 10 µL compound/standard or vehicle was added. The plate was […]
81 read at the 20 min time point. […]
100 at room temperature for 16 h. Fluorescence polarization measurements were made using an
101 Envision plate reader (Perkin Elmer, Waltham, M A, USA) and mP values were us ed for analysis.
102 Binding Ki values were determined using the Cheng- Prusoff equation (Ki = IC50/(1+L/Kd)), where […]

[2] = target: Human PED9A1 (Homo sapiens, UniProt O76083); experiment: Phosphodiesterase Assay (SPA); type: biochemical
Chain of Human PED9A1 (O76083 whole entry): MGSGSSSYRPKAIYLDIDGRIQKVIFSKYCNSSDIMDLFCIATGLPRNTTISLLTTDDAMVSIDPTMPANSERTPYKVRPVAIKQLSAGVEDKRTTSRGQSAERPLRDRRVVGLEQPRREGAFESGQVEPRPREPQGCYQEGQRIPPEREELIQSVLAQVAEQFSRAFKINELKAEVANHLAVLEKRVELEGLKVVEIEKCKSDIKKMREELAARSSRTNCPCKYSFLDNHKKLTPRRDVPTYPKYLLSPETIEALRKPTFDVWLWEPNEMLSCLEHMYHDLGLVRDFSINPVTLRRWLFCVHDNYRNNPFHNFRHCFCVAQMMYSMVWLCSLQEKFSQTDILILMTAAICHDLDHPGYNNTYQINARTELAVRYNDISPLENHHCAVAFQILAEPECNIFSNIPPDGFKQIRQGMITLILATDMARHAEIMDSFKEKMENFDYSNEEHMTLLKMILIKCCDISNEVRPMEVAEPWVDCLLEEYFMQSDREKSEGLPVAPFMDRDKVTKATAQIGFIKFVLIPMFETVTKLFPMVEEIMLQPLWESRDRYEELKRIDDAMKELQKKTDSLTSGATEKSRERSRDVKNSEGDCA

Chain of hERG (Q12809 whole entry): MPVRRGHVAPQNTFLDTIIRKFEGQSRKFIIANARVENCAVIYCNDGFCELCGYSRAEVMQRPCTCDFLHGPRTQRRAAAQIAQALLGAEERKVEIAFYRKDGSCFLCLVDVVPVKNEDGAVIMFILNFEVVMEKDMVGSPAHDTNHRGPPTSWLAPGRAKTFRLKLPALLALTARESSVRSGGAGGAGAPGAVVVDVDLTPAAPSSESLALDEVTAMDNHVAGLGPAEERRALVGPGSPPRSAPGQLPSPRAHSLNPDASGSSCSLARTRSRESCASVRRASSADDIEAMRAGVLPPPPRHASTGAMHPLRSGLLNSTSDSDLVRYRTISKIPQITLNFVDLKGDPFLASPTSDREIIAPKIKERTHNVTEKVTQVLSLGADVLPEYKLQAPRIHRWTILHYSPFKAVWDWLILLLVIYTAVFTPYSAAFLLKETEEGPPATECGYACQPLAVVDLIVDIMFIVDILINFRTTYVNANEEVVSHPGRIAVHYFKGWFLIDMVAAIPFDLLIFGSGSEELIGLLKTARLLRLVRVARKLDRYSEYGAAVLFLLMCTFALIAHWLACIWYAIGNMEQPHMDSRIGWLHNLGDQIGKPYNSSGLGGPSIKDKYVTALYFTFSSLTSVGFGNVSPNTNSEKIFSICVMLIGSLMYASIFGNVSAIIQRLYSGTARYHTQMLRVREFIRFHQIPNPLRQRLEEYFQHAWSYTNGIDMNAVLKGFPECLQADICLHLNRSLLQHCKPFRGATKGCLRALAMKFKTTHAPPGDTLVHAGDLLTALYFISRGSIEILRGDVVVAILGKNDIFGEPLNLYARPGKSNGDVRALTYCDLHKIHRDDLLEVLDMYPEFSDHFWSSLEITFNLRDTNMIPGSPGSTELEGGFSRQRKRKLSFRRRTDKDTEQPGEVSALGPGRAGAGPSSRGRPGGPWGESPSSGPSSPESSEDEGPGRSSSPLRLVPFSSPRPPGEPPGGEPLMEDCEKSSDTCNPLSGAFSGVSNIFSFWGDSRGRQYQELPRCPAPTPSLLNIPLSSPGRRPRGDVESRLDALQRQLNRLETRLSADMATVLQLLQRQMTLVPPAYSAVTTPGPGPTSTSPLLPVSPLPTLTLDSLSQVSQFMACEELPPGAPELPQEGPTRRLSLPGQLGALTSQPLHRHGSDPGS

SMILES: CCOc1cc(C)nc(N(CCOC)S(=O)(=O)c2ccc(NCc3c(F)cncc3F)nc2OC)n1 [Compound 1]
- Ki [1]: > 80 µM
- IC50 [2]: > 200 µM
